Data reported in paper PMC4682109, “The experimental power of FR900359 to study Gq-regulated biological processes” (Nature Communications, 2015).
Like-named read-outs stand apart in the source and are kept apart here. Starred links: 1 amine or outer side, 2 acyl side, 3 side chain; linkers in the order of their positions; H or OH if unused. Positions of bridges follow the written chain, without caps; N, C: chain ends. Non-standard residues stand in square brackets, D forms with d. Residues, ends and D or L forms follow the SMILES beside them. ξ: configuration not given here. *: point of attachment. Leu(3R-OH,Nα-propionyl) = CCC(=O)N[C@H](C(=O)*)[C@H](O)C(C)C; X1 = CC(C)[C@@H](O[*:3])[C@H](N[*:1])C(=O)[*:2]; NMeT = CN[C@H](C(=O)O)[C@@H](C)O; dPhLac = O=C(O)[C@H](O)Cc1ccccc1; NMeA = CN[C@@H](C)C(=O)O; NMeDha = C=C(NC)C(=O)O; ξNMeA = CNC(C)C(=O)O

How the values were obtained:
B16 cells = assay: XTT metabolic activity of B16 cells; format: cell-based, mouse; settings: 72 h of FR treatment
Procedure: (§1) B16 cell viability in the presence of various concentrations of FR was measured using the XTT-based cell proliferation kit II (Fa. Roche) according to the manufacturer's protocols. Viability of HEK293 cell lines was assessed using a fluorimetric detection of resorufin (CellTiter-Blue Cell Viability Assay, Promega). Specifically, Gαq/11 ko-HEK293 and HEK293 cells were seeded at a density of 20,000 and 25,000 cells per well into black 96-well poly-D-lysine-coated plates with clear bottom, respectively. Three hours after seeding cells were treated with 0.3% DMSO or FR dissolved in medium for 24 h. To detect cell viability, CellTiter-Blue reagent was added and cells were incubated for 1 h at 37 °C according to the manufacturer's instructions. Fluorescence (excitation 560 nm, emission 590 nm) was measured using a FlexStation 3 Benchtop Multimode Plate Reader and data were expressed as percentage of cell viability relative to DMSO control.

Gq = target: T1, Gq (Cricetulus griseus, UniProt Q3HR10); assay: IP1 accumulation in M1-CHO cells, carbachol; format: cell-based, Chinese hamster; settings: carbachol 30 µM, means ± SEM of at least three experiments, read-out: pIC50, IP1 (% of 30 µM carbachol) (converted)
T1 construct: endogenous in cells; host or cells: M1-CHO cells
T1 sequence (Q3HR10 1-359): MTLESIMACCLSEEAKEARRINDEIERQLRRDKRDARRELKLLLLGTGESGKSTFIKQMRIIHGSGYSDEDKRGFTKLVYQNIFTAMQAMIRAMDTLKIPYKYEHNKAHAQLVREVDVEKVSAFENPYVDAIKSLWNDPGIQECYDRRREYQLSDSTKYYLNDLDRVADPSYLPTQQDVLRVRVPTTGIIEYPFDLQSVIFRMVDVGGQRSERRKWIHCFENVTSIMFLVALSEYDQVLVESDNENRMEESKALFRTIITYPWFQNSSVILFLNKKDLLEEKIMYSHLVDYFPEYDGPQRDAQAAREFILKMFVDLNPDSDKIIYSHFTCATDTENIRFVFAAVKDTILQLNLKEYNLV
Procedure: (§2) Quantification of intracellular cAMP and IP1 was performed using the HTRF-cAMP dynamic kit and the HTRF-IP1 kit, respectively, on a Mithras LB 940 reader (Berthold Technologies) according to the manufacturer's instructions. For cAMP assays with M2-CHO cells, the Gi-biased muscarinic agonist iper-6-phth (ref. [30]) was applied.
Supplementary Figure 12: Catalytic hydrogenation of FR to produce “FR-red” and determination of its Gq-inhibitory activity. (a) The exocyclic double bond (yellow box) of FR was hydrogenated by hydrogen gas in the presence of palladium/carbon as a catalyst in a pressure tube in analogy to a procedure published for the hydrogenation of YM2. The structure of the product FR-red was confirmed by high performance liquid chromatography coupled to electrospray ionization mass spectrometry (LCMS) and by 1H- and 13C-NMR spectra. (b) M1-CHO cells were pre-incubated with increasing concentrations of FR or (also on this page, place not known: “FR -red” hydrogen ation YM 2. -red FR a b -8 -7 -6 -5 0 25 50 75 100 FR compound (log M) IP1 (% of 30 µM carbachol) FR FR-red)
(1 picture or pasted object on this page, not shown here)
FR-red and IP1 accumulation was determined in response to carbachol (30 µM). Inhibition of Gq protein […]
± 0.05). Data are means ± SEM of at least three independent experiments each performed in triplicate.

[1] = test system: HEK293 wild type and HEK293 Gαq/11 knockout cells; assay: Cell viability (CellTiter-Blue, resazurin) in HEK293 wild type and Gαq/11 knockout cells; format: cell-based; settings: supramaximal FR concentrations, 24 h
Procedure: as §1

[2] = test system: HEK293 Gαq/11 knockout cells; assay: Annexin V flow cytometry in HEK293 Gαq/11 knockout cells; format: cell-based; settings: FR 10 μM, 72 h; representative experiment
Excerpt: For apoptosis analysis of HEK293 cells, cells were stained for Annexin V by use of the Annexin V-FITC Apoptosis Detection Kit (Calbiochem) according to the manufacturer's instructions.

[3] = test system: HEK293 Gαq/11 knockout cells; assay: Cell growth and Ki67 staining in HEK293 Gαq/11 knockout cells; format: cell-based; settings: FR 10 μM
Procedure: For analysis of growth properties of HEK293 cells, 10^5 HEK 293 cells per well were seeded on a 6-well tissue culture plate. After 3 h cells were treated with either 10 μmol FR or 0.1% DMSO. After 72 h cell number was determined by counting in a Neubauer chamber.
Cells grown on coverslips were fixed with 4% paraformaldehyde in PBS and stained with antibodies as follows (in 0.2% Triton X in PBS, supplemented with 5% donkey serum; 2 h at room temperature): Ki67 MIB-1 (1:200, Covance) and vimentin (1:1,000, Chemicon). Primary antibodies were visualized by secondary antibodies conjugated to Cy5 (1:400, Jackson ImmunoResearch) diluted in 1 μg ml^−1 Hoechst 33342 (nuclei staining) at room temperature for 1 h. For documentation an inverted fluorescence microscope (Axiovert 200; Carl Zeiss MicroImaging, Inc.) equipped with a slider module (ApoTome; Carl Zeiss MicroImaging, Inc.), using filters for DAPI, GFP, Cy3 and Cy5, x25, x40 DIC Plan Apochromat oil objectives, an ebx 75 light source and an AxioCam MRm digital camera was used. Pictures were generated with the Axiovision Rel. 4.8 software (Zeiss).

[4] = target: T2, purified recombinant Gαq (GαqΔ34) (Mus musculus, UniProt P21279); assay: [3H]GDP dissociation from purified Gαq; format: biochemical
T2 construct: first 28 residues of rat Gαi1 (GNAI1, P10824 by own knowledge) (N); TEV-cleavage site (N); made in house; host or cells: insect cells (Sf9), pFastBac1 vector
T2 sequence (P21279 35-359): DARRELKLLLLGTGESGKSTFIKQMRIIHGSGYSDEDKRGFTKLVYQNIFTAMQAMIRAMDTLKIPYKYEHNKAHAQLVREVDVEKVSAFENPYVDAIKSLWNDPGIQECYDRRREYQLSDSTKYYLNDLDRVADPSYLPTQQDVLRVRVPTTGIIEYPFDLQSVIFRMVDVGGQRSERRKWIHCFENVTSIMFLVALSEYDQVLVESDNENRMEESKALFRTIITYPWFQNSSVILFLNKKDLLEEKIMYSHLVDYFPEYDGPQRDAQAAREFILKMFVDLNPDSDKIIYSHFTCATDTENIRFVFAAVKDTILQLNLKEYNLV
Procedure: GαqΔ34 (containing the first 28 residues of rat Gαi1 fused to mouse Gαq lacking the first 34 residues, and with a TEV-cleavage site between the Gαi1 and Gαq sequences) was purified after expression from a pFastBac1 vector in insect cells. Purified GαqΔ34 (∼7 mg ml^−1) was stored at −80 °C in 20 mM HEPES pH 8, 0.2 mM dithiothreitol, 2% (v/v) glycerol, 100 mM NaCl, 0.1 mg ml^−1 PMSF augmented with 10 mM NaF, 30 μM AlCl3, and 5 mM MgCl2.
[^3H]GDP exchange by Gαq was measured based on previous protocols. Briefly, purified GαqΔ34 (100 nM) was incubated with 1 μM [^3H]GDP (42,500 c.p.m. pmol^−1) and 50 mM (NH4)2SO4 for 18 h at 20 °C in assay buffer A (50 mM HEPES pH 7.5, 1 mM EDTA, 0.9 mM MgSO4, 1 mM dithiothreitol, and 0.05% Genapol C-100). Excess [^3H]GDP was removed from Gαq using a ZebaTM spin desalting column following the manufacturer's protocol (Thermo Scientific). Approximately 20% of Gαq incorporated the radiolabelled nucleotide. The reaction mixtures were then mixed with the same volume of assay buffer A in the presence of 0.1–2% dimethylsulphoxide (DMSO), 0–200 nM FR and 1.5 M (NH4)2SO4 to reach final concentrations of […] DMSO, 0–100 nM FR and 750 mM (NH4)2SO4 in the reaction. Dissociation of [^3H]GDP was monitored at 20 °C by stopping the reaction by addition of 4 ml of an ice-cold wash buffer (20 mM Tris pH 8.0, 100 mM NaCl and 2 mM MgSO4). The quenched mixtures were filtered through nitrocellulose membranes, the membranes were washed four times with ice-cold wash buffer, and the filters air-dried for at least 10 min. Radioactivity was quantified by scintillation spectrometry.
Supplementary Table 1: logEC values of the inhibitory effect of FR on [3H]GDP dissociation were
independent of the time point used for quantification.
[3H]GDP binding to purified Gαq proteins was quantified in presence of increasing concentrations of FR
after four different time points (30 min, 60 min, 90 min, 120 min). Data were analyzed by fitting [3H]GDP
binding versus FR concentration to the four parameter logistic function and the logarithm of the half
maximal effective concentrations (logEC50 expressed as means ± SEM from the respective curves in Fig.
7h) for FR-induced inhibition of [3H]GDP dissociation are presented.

ERK1/2 = assay: HTRF-based ERK1/2 phosphorylation assay in melanoma cell lines; set-up: species or system human and mouse; settings: 1 μM, 1 h
Procedure: Quantification of phosphorylated ERK1/2 levels was performed using the phospho-ERK (Thr202/Tyr204) cellular assay kit (Cisbio). Melanoma cells were seeded into 96-well plates at a density of 25,000 or 50,000 cells per well and cultured overnight. The next day, medium was aspirated and cells were treated with 1 μM FR, 1 μM Trametinib, 1 μM Vemurafenib, or medium for 1 h at 37 °C. Subsequently, medium and inhibitors were removed and 50 μl lysis buffer were added to each well. The plates were incubated for 30 min at room temperature with shaking to lyse the cells and then frozen overnight at −20 °C. Lysates (16 μl) were transferred to a white 384-well plate. Anti-phospho-ERK1/2-d2 (2 μl) and anti-phospho-ERK1/2-Eu3^+-cryptate (2 μl) were added to each well and plates were incubated in the dark for 2 h at room temperature. Time-resolved fluorescence resonance energy transfer (FRET) signals were measured using the Mithras LB 940 multimode reader (Berthold Technologies).

[5] = test system: Gi-sensitive prostaglandin D2 receptor DP2/CRTH2; assay: cAMP lowering (HTRF), Gi-sensitive CRTH2 in CRTH2-HEK293; format: cell-based; settings: CRTH2-RLuc-GFP2-β-arrestin2-HEK293, PTX pretreatment
Procedure: as §2

[6] = test system: CRTH2 β-arrestin2 recruitment; assay: BRET2 β-arrestin2 recruitment to CRTH2; format: cell-based; settings: CRTH2-RLuc-GFP2-β-arrestin2-HEK293; PTX 16-20 h, FR 30 min
Procedure: For BRET^2 assays on HEK293 cells stably expressing CRTH2-Luc and GFP^2-β-arrestin2, cells were detached and resuspendend in HBSS with 20 mM HEPES at a density of 1.06 × 10^6 cells per ml. Cell suspension (170 μl) was distributed into white 96-well microplates and incubated in the presence of 10 μl buffer or agonist for 5 min before substrate addition. DeepBlueC coelenterazine (Gold Biotechnology, MO, USA; 20 μl per well) was injected by injector 3 to yield a final concentration of 5 μM. To detect BRET, light emissions at 400 and 515 nm were measured sequentially using a Mithras LB 940 instrument. The BRET signal (BRET ratio) was determined by calculating the ratio of the light emitted by the fluorescence acceptor (515 nm) and the light emitted by Rluc (400 nm). The cells were pretreated with PTX for 16–20 h and FR for 30 min.

C=C1C(=O)N[C@@H](C)C(=O)N(C)[C@@H](C)C(=O)N[C@@H]([C@H](OC(=O)[C@@H](NC(=O)CC)[C@H](O)C(C)C)C(C)C)C(=O)N(C)[C@@H]([C@@H](C)OC)C(=O)O[C@H](C(C)C)[C@H](NC(C)=O)C(=O)O[C@H](Cc2ccccc2)C(=O)N1C [FR, FR900359] (Ac-[X1][dPhLac][NMeDha]A[NMeA][X1](Leu(3R-OH,Nα-propionyl))[NMeT](Me); ester 1-C)
mitochondrial metabolism (XTT) (B16 cells): did not compromise mitochondrial metabolism
IC50 (Gq): 263 nM
cell viability / cellular metabolic homoeostasis [1]: does not disturb cellular metabolic homoeostasis
Annexin V [2]: 2.06%
percentage of proliferating cells (Ki67) ([3]; 24 h): did not alter
cell growth ([3]; 72 h): did not alter
EC50 ([4]; [3H]GDP binding to Gαq after 120 min dissociation, 20 °C, read-out: half effective concentration, prevention of [3H]GDP dissociation): 15 nM
EC50 ([4]; time 30 min, read-out: logEC50, inhibition of [3H]GDP dissociation (converted)): 15.5 nM
EC50 ([4]; time 60 min, read-out: logEC50, inhibition of [3H]GDP dissociation (converted)): 12.3 nM
EC50 ([4]; time 90 min, read-out: logEC50, inhibition of [3H]GDP dissociation (converted)): 13.2 nM
EC50 ([4]; time 120 min, read-out: logEC50, inhibition of [3H]GDP dissociation (converted)): 15.5 nM

CCC(=O)N[C@H](C(=O)O[C@H](C(C)C)[C@@H]1NC(=O)[C@H](C)N(C)C(=O)[C@H](C)NC(=O)C(C)N(C)C(=O)[C@@H](Cc2ccccc2)OC(=O)[C@@H](NC(C)=O)[C@@H](C(C)C)OC(=O)[C@H]([C@@H](C)OC)N(C)C1=O)[C@H](O)C(C)C (stereo partly drawn) [FR-red] (Ac-[X1][dPhLac][ξNMeA]A[NMeA][X1](Leu(3R-OH,Nα-propionyl))[NMeT](Me); ester 1-C)
IC50 (Gq): 891 nM

CC(=O)Nc1cccc(-n2c(=O)n(C3CC3)c(=O)c3c(Nc4ccc(I)cc4F)n(C)c(=O)c(C)c32)c1 [Trametinib]
ERK phosphorylation (ERK1/2): blunted ERK phosphorylation in all cell lines

CCCS(=O)(=O)Nc1ccc(F)c(C(=O)c2c[nH]c3ncc(-c4ccc(Cl)cc4)cc23)c1F [Vemurafenib]
ERK phosphorylation (ERK1/2): inhibited ERK activation only in cell lines harbouring the mutant B-RafV600E allele

pertussis toxin [PTX]
CRTH2-dependent lowering of cAMP [5]: fully prevented
PGD2-induced β-arrestin recruitment to CRTH2 [6]: without effect
